Results published in ChEMBL document CHEMBL1201862, “PubChem BioAssay data set” (2004).
Activity calls are given as the source filed them.

Key:
[1] = inhibitors of HIV Env-driven cell fusion, dose response, cherry-pick (AID 652057); type: functional, cell-based
[2] = CEM21 lymphoblast cell cytotoxicity, dose response, cytotoxicity control for viral fusion inhibitor project, CellTiter-Glo luminescence, cherry-picked (AID 652042); type: functional, cell-based;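 also: potency for signal decrease meaning cytotoxicity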
[3] = ZM109 Env clade C HIV-1 fusion inhibitors, dose response, HeLa effector, CEM target cells, luciferase, cherry-pick (AID 652058); type: functional, cell-based
[4] = off-target signal loss in HeLa-CEM21 co-culture – HeLa F-luc CTL cells, cherry-picked, counter-screen for HIV-1 Env fusion inhibitor project, dose response (AID 652040); type: functional, cell-based;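 also: potency for signal decrease marking cytotoxic or nonspecific inhibition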
[5] = inhibitors of clade B AD8 Env fusion, dose response, cell-based, cherry-pick (AID 652062); type: functional;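 also: luciferase signal from cell-cell fusion driven by HIV-1 clade B AD8 Env; potency is for inhibitors of fusion seen as a drop in luminescence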
[6] = target: T1, Methionyl-tRNA synthetase, putative (Trypanosoma brucei brucei, UniProt Q38C91); type: functional, Trypanosoma brucei brucei strain 927/4 GUTat10.1
T1 sequence (Q38C91 whole entry): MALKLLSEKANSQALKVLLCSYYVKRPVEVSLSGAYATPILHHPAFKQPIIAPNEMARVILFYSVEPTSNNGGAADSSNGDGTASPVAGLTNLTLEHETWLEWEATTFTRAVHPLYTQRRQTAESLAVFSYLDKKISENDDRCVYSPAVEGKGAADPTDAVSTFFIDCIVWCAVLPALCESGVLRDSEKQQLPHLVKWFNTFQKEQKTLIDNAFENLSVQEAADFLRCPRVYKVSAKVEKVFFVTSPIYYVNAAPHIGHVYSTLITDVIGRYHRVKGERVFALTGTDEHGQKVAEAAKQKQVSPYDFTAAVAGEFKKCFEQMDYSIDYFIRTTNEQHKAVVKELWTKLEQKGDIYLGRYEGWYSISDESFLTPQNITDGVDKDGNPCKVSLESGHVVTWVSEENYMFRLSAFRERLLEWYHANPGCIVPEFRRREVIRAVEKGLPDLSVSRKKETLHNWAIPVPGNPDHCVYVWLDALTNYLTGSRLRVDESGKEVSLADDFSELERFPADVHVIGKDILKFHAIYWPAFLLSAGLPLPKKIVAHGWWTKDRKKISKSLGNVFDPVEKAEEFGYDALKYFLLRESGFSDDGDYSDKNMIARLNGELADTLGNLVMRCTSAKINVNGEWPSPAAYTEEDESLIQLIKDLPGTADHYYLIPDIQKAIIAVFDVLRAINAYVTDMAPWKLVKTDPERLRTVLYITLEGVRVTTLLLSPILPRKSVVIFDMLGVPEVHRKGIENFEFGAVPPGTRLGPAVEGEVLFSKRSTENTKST

[7] = Counterscreen for inhibitors of Trypanosoma brucei methionyl tRNA synthetase (MetRS): Luminescence-based cell-based high throughput dose response assay to identify compounds that are cytotoxic to Jurkat human T lymphocyte cells.; type: functional
[8] = target: T1, Methionyl-tRNA synthetase, putative; type: functional, Trypanosoma brucei brucei strain 927/4 GUTat10.1; remark: listed apart in the source
[9] = target: Cytochrome P450 2C9 (Homo sapiens, UniProt P11712)
[10] = system: INS1; experiment: beta cell apoptosis inhibitors, cytokine rescue, dose response, luminescence, retest (AID 449756); type: functional, cell-based; settings: Rattus norvegicus;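 also: cell death triggered by IL-1 beta plus TNF-alpha plus IFN-gamma mixture; protective hits raise ATP signal compared with cytokine alone wells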

Sequence of Cytochrome P450 2C9 (P11712 whole entry): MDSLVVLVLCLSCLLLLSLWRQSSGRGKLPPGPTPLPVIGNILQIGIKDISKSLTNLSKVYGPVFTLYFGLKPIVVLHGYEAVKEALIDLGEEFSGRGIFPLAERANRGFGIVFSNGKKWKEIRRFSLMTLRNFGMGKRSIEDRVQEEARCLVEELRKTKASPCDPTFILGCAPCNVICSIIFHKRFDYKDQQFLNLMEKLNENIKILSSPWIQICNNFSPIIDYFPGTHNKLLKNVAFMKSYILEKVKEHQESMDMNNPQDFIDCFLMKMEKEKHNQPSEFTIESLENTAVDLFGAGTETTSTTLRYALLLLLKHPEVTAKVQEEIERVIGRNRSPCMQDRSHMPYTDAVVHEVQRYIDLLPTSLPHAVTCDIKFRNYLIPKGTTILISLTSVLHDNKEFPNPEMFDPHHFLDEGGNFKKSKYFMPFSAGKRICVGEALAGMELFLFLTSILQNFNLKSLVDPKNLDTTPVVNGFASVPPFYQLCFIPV

Structure (SMILES) | AC50 [1] | AC50 [2] | AC50 [3] | AC50 [4] | AC50 [5] | IC50 [6] | IC50 [7] | IC50 [8] | AC50 [9] | AC50 [10]
CCNS(=O)(=O)c1ccc(CCC(=O)Nc2cc(Cl)ccc2Oc2ccccc2)cc1 | 5.54 µM (active) | 40.5 µM (active) | 2.17 µM (active) | 12 µM (active) | 11.6 µM (active) |  |  |  |  | 
Clc1ccccc1-c1ccc2ncnc(NCc3cccnc3)c2c1 |  |  |  |  |  | 14.1 µM (inactive) | 83.3 µM (inactive) | 17.1 µM (inactive) | 0.794 µM (inconclusive) | 
CC(=O)c1ccc(NC(=O)c2ccc(-n3cncn3)c([N+](=O)[O-])c2)cc1 |  |  |  |  |  | 7.16 µM (active) | 83.3 µM (inactive) | 4.12 µM (active) |  | 
CCn1c(-c2ccc(C)cc2)nn(CC(=O)NCCc2ccccc2)c1=S | 8.88 µM (active) | 51.1 µM (active) | 4.85 µM (active) | 7.04 µM (active) | 6.95 µM (active) |  |  |  |  | 5.9 µM (active)
Cc1[nH]c2ccccc2c1C(=O)C(=O)NCCc1ccc(S(N)(=O)=O)cc1 |  |  |  |  |  | 14.8 µM (inactive) | 83.3 µM (inactive) | 6.63 µM (active) |  | 
